Results taken from patent publication US20130190324A1, “TOPICAL OCULAR DRUG DELIVERY” (The Regents of the University of Colorado, a body corporate, priority 2011, published 2013).

Experiments:
calf cornea = assay: In vitro transport of substrate cassette across normoxic and hypoxic calf cornea; conditions: for apparent permeability (Papp) across hypoxic vs normoxic tissue (in words) / transport across hypoxic vs normoxic tissue (in words): calf cornea; for transport across hypoxic vs normoxic tissue (in words): cassette 100 μM
Source text: (§1) Animals used in this study were those that were sacrificed as part of other experiments approved by the Institutional Animal Care Committee of the Colorado State University (Fort Collins) and University of Colorado Anschutz Medical campus. Hypoxic and normoxic calf eyes were obtained from the Department of Physiology, School of Veterinary Medicine, Colorado State University (Fort Collins, Colo.). Briefly, 1 day old male Holstein calves (n=4) were kept in hypobaric hypoxic chambers (PB=445 mm Hg) for 2 weeks. For control experiment, age matched calves (n=4) were kept at ambient altitude (PB=650 mm Hg) and normoxia for two weeks. Hypoxic and normoxic rat eyes were obtained from the Department of Medicine, University of Colorado Anschutz Medical campus (Aurora, Colo.). Sprague Dawley rats (n=4) were maintained in hypobaric hypoxic chambers (PB=380 mm Hg) for 6 weeks and age matched controls were kept at ambient pressure and normoxia.
(§2) In vitro transport studies across hypoxic and control calf cornea and sclera-choroid-RPE (SCRPE) were carried using cassette dosing approach. A cassette of drug transporter substrates, Gly-Sar (PEPT), valacylovir (ATB^0+), MPP^+ (OCT), and phenylacetic acid (MCT) at a concentration of 100 μM each in assay buffer was prepared. Briefly, the calf eyes were harvested immediately after euthanasia and transferred to the laboratory on ice. Upon arrival in the lab, the eyes were washed with assay buffer and cleaned from muscle and unwanted tissues. Anterior and posterior parts were separated by circumferential cut at the limbus. Vitreous was removed and the neural retina was separated from the choroid-RPE by filling the eye cup with assay buffer. The retina afloat in assay buffer was isolated and the eye cup was divided into two pieces (˜1.5×1.5 cm) of sclera-choroid-RPE. Isolated tissues were mounted on modified Ussing chambers (Navicyte, Sparks, Nev.) such that the episcleral side of SCRPE or epithelial side of cornea was facing the donor chamber and retinal side or endothelial side of the cornea was facing the receiver chamber. The chambers were filled with 1.5 ml of assay buffer at 37° C. with (donor side) or without (receiver side) the cocktail of drug transporter substrates. For the study of effect of transporter inhibitors, cocktail mixture (500 μM) of transporter inhibitors was added on both donor and acceptor sides.
(§3) During the transport study, the bathing fluids were maintained at 37° C. using circulating warm water. The pH of the fluids was maintained at pH 7.4 using 95% air-5% CO2 aeration. Samples were collected (200 μL) from receiver side every hour for 6 hours and the removed volume was replaced with fresh assay buffer pre-equilibrated to 37° C. Drug levels were analyzed using a LC-MS/MS assay. Permeation data were corrected for dilution of the receiver concentrations with sample volume replenishment.
(§4) Analyte concentrations in transport study samples were measured using LC-MS/MS method after 5-fold dilution with acetonitrile to reduce the salt concentrations. A cassette analysis method was developed for simultaneous analysis of Gly-Sar, valacylovir, and MPP Phenyl acetic acid was analyzed separately with a negative ionization method and a normal phase separation method. An API-3000 triple quadrupole mass spectrometry (Applied Biosystems, Foster City, Calif., USA) coupled with a PerkinElmer series-200 liquid chromatography (Perkin Elmer, Waltham, Mass., USA) system was used for analysis. Gly-Sar, valacylovir and MPP were separated on Supelco C-5 column (2.1×10 mm, 3 μm) using water containing 0.1% formic acid (A) and acetonitrile:methanol (50:50 v/v) containing 0.1% formic acid (B) as mobile phase. A linear gradient elution at a flow rate of 0.3 ml/min with a total run time of 9 min was employed. Phenyl acetic acid was separated in normal phase separation mode on Obelisc-N silica column (2.1×10 mm, 3 μM) using 5 mM ammonium formate at pH 3.5 (A) and acetonitrile (B) as mobile phase.

human cornea = assay: In vitro transport of transporter substrate cassette across human cornea; conditions: for transport in presence of transporter inhibitor (in words): apical to basal, inhibitor cocktail 500 μM
Procedure: In vitro transport studies across human cornea and sclera-choroid-RPE (SCRPE) were carried out according to previously published method using the cassette dosing approach. Briefly, cassette of drug transporter substrate including Gly-Sar (PEPT), L-tryptophan (ATB^0+), MPP^+ (OCT), and phenyl acetic acid (MCT) at concentration of 100 μM in assay buffer was prepared. Briefly, the human eyes were washed with assay buffer and cleaned from muscle and conjunctiva tissues, and anterior and posterior parts were separated by giving circumferential cut behind the limbus. Small sclera part was left with cornea, which helps in mounting of cornea on Ussing chambers. Neural retina was separated from the choroid-RPE by filling the eye cup with assay buffer, and floating retina was collected. After separation of retina, eye cup was divided into two rectangular pieces (˜1.5×1.5 cm) of sclera-choroid-RPE. Isolated tissues were mounted on modified Ussing chambers (Navicyte, Sparks, Nev.) such that the episcleral side of SCRPE or epithelial side of cornea was facing the donor chamber and retinal side or endothelial side of cornea is facing the receiver chamber. To study the effect of directionality on transport, one set of Ussing chambers mounted so that sclera side facing the donor side and another set was mounted so that choroid-RPE facing the donor side. […] The chambers were filled with 1.5 ml of assay buffer with (donor side) or without (receiver side) the cocktail of drug transporter substrates. For study of effect of transporter inhibitors, cocktail mixture (500 μM) of transporter inhibitor was added on both donor and acceptor side.
(§5) During the transport study, the bathing fluids were maintained at 37° C. using a circulating warm water and pH 7.4 using 95% air-5% CO2 aeration. Samples were collected (200 μL) form receiver side every hour for 6 hr and the lost volume was compensated with fresh assay buffer pre-equilibrated at 37° C. The drug levels were analyzed using a LC-MS/MS assay. Permeation data were corrected for dilution of the receiver solution with sample volume replenishment.
Analytes concentrations in transport study samples were analyzed using LC-MS/MS method after 5-fold dilution with acetonitrile to reduce the salt concentrations. […] Phenyl acetic acid was analyzed separately in negative ionization method and normal phase separation method. […] Gly-Sar, L-tryptophan, and MPP^+ were analyzed in positive ionization mode with following multiple reaction monitoring (MRM) transitions: 147→90 (Gly-Sar); 205→188 (L-tryptophan); 170→128 (MPP^+). Phenyl acetic acid was analyzed in negative ionization mode with following multiple reaction monitoring (MRM) transitions: 135→91 (Phenyl acetic acid).

[1] = test system: calf sclera-choroid-RPE (SCRPE); assay: In vitro transport of substrate cassette across normoxic and hypoxic calf SCRPE; conditions: for apparent permeability (Papp) across hypoxic vs normoxic tissue (in words) / transport across hypoxic vs normoxic tissue (in words): calf SCRPE; for transport across hypoxic vs normoxic tissue (in words): cassette 100 μM
Source text: as §1, §2, §3, §4

[2] = test system: human sclera-choroid-RPE (SCRPE); assay: In vitro transport of transporter substrate cassette across human sclera-choroid-RPE; conditions: human SCRPE; for sclera to retina transport in presence of transporter specific inhibitor (in words): inhibitor cocktail 500 μM; for sclera to retina transport compared with retina to sclera transport (in words): substrate cassette 100 μM
Procedure: In vitro transport studies across human cornea and sclera-choroid-RPE (SCRPE) were carried out according to previously published method using the cassette dosing approach. Briefly, cassette of drug transporter substrate including Gly-Sar (PEPT), L-tryptophan (ATB^0+), MPP^+ (OCT), and phenyl acetic acid (MCT) at concentration of 100 μM in assay buffer was prepared. Briefly, the human eyes were washed with assay buffer and cleaned from muscle and conjunctiva tissues, and anterior and posterior parts were separated by giving circumferential cut behind the limbus. Small sclera part was left with cornea, which helps in mounting of cornea on Ussing chambers. Neural retina was separated from the choroid-RPE by filling the eye cup with assay buffer, and floating retina was collected. After separation of retina, eye cup was divided into two rectangular pieces (˜1.5×1.5 cm) of sclera-choroid-RPE. Isolated tissues were mounted on modified Ussing chambers (Navicyte, Sparks, Nev.) such that the episcleral side of SCRPE or epithelial side of cornea was facing the donor chamber and retinal side or endothelial side of cornea is facing the receiver chamber. To study the effect of directionality on transport, one set of Ussing chambers mounted so that sclera side facing the donor side and another set was mounted so that choroid-RPE facing the donor side. The effect of directionality of transport across cornea was not evaluated. The chambers were filled with 1.5 ml of assay buffer with (donor side) or without (receiver side) the cocktail of drug transporter substrates. For study of effect of transporter inhibitors, cocktail mixture (500 μM) of transporter inhibitor was added on both donor and acceptor side.
as §5
Analytes concentrations in transport study samples were analyzed using LC-MS/MS method after 5-fold dilution with acetonitrile to reduce the salt concentrations. Cassette analysis method was developed for simultaneous analysis of Gly-Sar, L-tryptophan and MPP^+. Phenyl acetic acid was analyzed separately in negative ionization method and normal phase separation method. An API-3000 triple quadrupole mass spectrometry (Applied Biosystems, Foster City, Calif., USA) coupled with a PerkinElmer series-200 liquid chromatography (Perkin Elmer, Walthm, Mass., USA) system was used for analysis. Gly-Sar, L-tryptophan and MPP^+ were separated on Supelco C-5 column (2.1×10 mm, 3 μm) using water containing 0.1% formic acid (A) and acetonitrile:methanol (50:50 v/v) containing 0.1% formic acid (B) as mobile phase and a linear gradient elution at a flow rate of 0.3 ml/min with total run time of 9 min. Phenyl acetic acid was separated in normal phase separation mode using Obelisc-N silica column (2.1×10 mm, 3 μM) using 5 mM ammonium formate, pH 3.5 (A) and acetonitrile (B) as mobile phase in linear gradient mode at flow rate of 0.3 ml with total run time of 6 min. Gly-Sar, L-tryptophan, and MPP^+ were analyzed in positive ionization mode with following multiple reaction monitoring (MRM) transitions: 147→90 (Gly-Sar); 205→188 (L-tryptophan); 170→128 (MPP^+). Phenyl acetic acid was analyzed in negative ionization mode with following multiple reaction monitoring (MRM) transitions: 135→91 (Phenyl acetic acid).

Compound	apparent permeability (Papp) across hypoxic vs normoxic tissue (in words) (calf cornea)	transport across hypoxic vs normoxic tissue (in words) (calf cornea)	inward transport compared with outward transport (in words) (human cornea; cornea)	transport in presence of transporter inhibitor (in words) (human cornea; human cornea)	apparent permeability (Papp) across hypoxic vs normoxic tissue (in words) [1]	transport across hypoxic vs normoxic tissue (in words) [1]	transport across hypoxic vs normoxic tissue (in words) ([1]; listed as phenylacetic acid)	apparent permeability (Papp) across hypoxic vs normoxic tissue (in words) ([1]; listed as phenylacetic acid)	sclera to retina transport in presence of transporter specific inhibitor (in words) [2]	sclera to retina transport compared with retina to sclera transport (in words) [2]	decrease in cumulative % transport across hypoxic tissue (calf cornea; hypoxic vs normoxic calf cornea) [%]	transport lower in presence of OCT inhibitor metformin (human cornea; human cornea) [fold]	transport across hypoxic vs normoxic tissue (in words) ([1]; listed as MPP+)	decrease in cumulative % transport across hypoxic tissue ([1]; hypoxic vs normoxic calf SCRPE) [%]	inhibition of sclera to retina transport in presence of specific inhibitors ([2]; inhibitor cocktail 500 μM (metformin for MPP+)) [fold]
O=C(O)Cc1ccccc1 [phenyl acetic acid]	significantly higher across hypoxic cornea than normoxic cornea	significantly higher than normoxic cornea	significantly higher than outward transport	significantly inhibited	increased by several fold in hypoxic condition	increased by several fold in hypoxic condition	significantly higher across hypoxic SCRPE than normoxic SCRPE	significantly higher across hypoxic SCRPE than normoxic SCRPE	no significant effect of inhibitor	retina to sclera transport was significantly higher than inward transport	–	–	–	–	–
C[n+]1ccc(-c2ccccc2)cc1.[I-] [MPP^+, MPP^+ iodide]	significantly higher across normoxic cornea than hypoxic cornea	significantly higher across normoxic calf cornea than hypoxic calf cornea	–	significantly inhibited	significantly higher across normoxic SCRPE than hypoxic SCRPE	significantly decreased in hypoxic calf SCRPE	–	–	significantly inhibited	significantly higher	49	2.6	significantly higher across normoxic calf SCRPE than hypoxic calf SCRPE	61	1.7
